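At the GI50, growth is halved. The concentration for full growth arrest is given as TGI.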
Columns and labels:
Assay in all cases: inhibition of tumour cell growth, NCI panel, 384-well format
MDA-MB-468 breast = system: MDA-MB-468 breast
SF-539 CNS = system: SF-539 CNS
OVCAR-3 ovarian = system: OVCAR-3 ovarian
RXF 393 renal = system: RXF 393 renal
COLO 205 colon = system: COLO 205 colon
NCI-H23 lung = system: NCI-H23 lung
M14 melanoma = system: M14 melanoma
A549 NSCLC = system: A549 NSCLC
DU-145 prostate = system: DU-145 prostate
ACHN renal = system: ACHN renal
BT-549 breast = system: BT-549 breast
MOLT-4 leukemia = system: MOLT-4 leukemia
SF-268 CNS = system: SF-268 CNS
HCT-116 colon = system: HCT-116 colon
CCRF-CEM leukemia = system: CCRF-CEM leukemia
OVCAR-8 ovarian = system: OVCAR-8 ovarian
SNB-75 CNS = system: SNB-75 CNS
EKVX NSCLC = system: EKVX NSCLC
CAKI-1 renal = system: CAKI-1 renal
A498 renal = system: A498 renal
NCI/ADR-RES ovarian = system: NCI/ADR-RES ovarian
HOP-62 NSCLC = system: HOP-62 NSCLC
HL-60(TB) leukemia = system: HL-60(TB) leukemia
NCI-H522 lung = system: NCI-H522 lung
MALME-3M melanoma = system: MALME-3M melanoma
NCI-H460 NSCLC = system: NCI-H460 NSCLC
SN12C renal = system: SN12C renal
OVCAR-4 ovarian = system: OVCAR-4 ovarian
NCI-H226 lung = system: NCI-H226 lung
MDA-MB-231 breast = system: MDA-MB-231 breast
HCC-2998 colon = system: HCC-2998 colon
MCF7 breast = system: MCF7 breast
HCT-15 colon = system: HCT-15 colon
PC-3 prostate = system: PC-3 prostate
SK-MEL-28 melanoma = system: SK-MEL-28 melanoma
SW-620 colon = system: SW-620 colon
SNB-19 CNS = system: SNB-19 CNS
HOP-92 NSCLC = system: HOP-92 NSCLC
NCI-H322M lung = system: NCI-H322M lung
HS 578T breast = system: HS 578T breast
U251 glioblastoma = system: U251 glioblastoma
K-562 leukemia = system: K-562 leukemia
IGROV1 ovarian = system: IGROV1 ovarian
T-47D breast = system: T-47D breast
TK-10 renal = system: TK-10 renal
RPMI-8226 leukemia = system: RPMI-8226 leukemia
UACC-62 melanoma = system: UACC-62 melanoma
HT29 colon = system: HT29 colon
UO-31 renal = system: UO-31 renal
SF-295 CNS = system: SF-295 CNS
KM12 colon = system: KM12 colon
786-0 renal = system: 786-0 renal
LOX IMVI melanoma = system: LOX IMVI melanoma
SK-OV-3 ovarian = system: SK-OV-3 ovarian
MDA-MB-435 melanoma = system: MDA-MB-435 melanoma

Compound: FC(F)(F)c1ccc(Nc2nc(-c3c(C(F)(F)F)nc4ccccn34)cs2)cc1
- GI50 (MDA-MB-468 breast): 161 nM
- TGI (MDA-MB-468 breast): 310 nM
- GI50 (SF-539 CNS): 35.7 nM
- TGI (SF-539 CNS): 179 nM
- GI50 (OVCAR-3 ovarian): 16.6 nM
- TGI (OVCAR-3 ovarian): 39.1 nM
- GI50 (RXF 393 renal): 13.4 nM
- TGI (RXF 393 renal): 42.8 nM
- GI50 (COLO 205 colon): 26.5 nM
- TGI (COLO 205 colon): 67.1 nM
- GI50 (NCI-H23 lung): 26.4 nM
- TGI (NCI-H23 lung): 89.6 nM
- GI50 (M14 melanoma): 25.2 nM
- TGI (M14 melanoma): 88.5 nM
- GI50 (A549 NSCLC): 61.9 nM
- TGI (A549 NSCLC): 3740 nM
- GI50 (DU-145 prostate): 32.8 nM
- TGI (DU-145 prostate): 1370 nM
- GI50 (ACHN renal): 88.9 nM
- TGI (ACHN renal): 3190 nM
- GI50 (BT-549 breast): 39.1 nM
- TGI (BT-549 breast): 1240 nM
- GI50 (MOLT-4 leukemia): 18.9 nM
- TGI (MOLT-4 leukemia): 37.4 nM
- GI50 (SF-268 CNS): 35.4 nM
- TGI (SF-268 CNS): 1430 nM
- GI50 (HCT-116 colon): 32.8 nM
- TGI (HCT-116 colon): 1440 nM
- GI50 (CCRF-CEM leukemia): 19.6 nM
- TGI (CCRF-CEM leukemia): 36.9 nM
- GI50 (OVCAR-8 ovarian): 35.7 nM
- TGI (OVCAR-8 ovarian): 1150 nM
- GI50 (SNB-75 CNS): 22.1 nM
- TGI (SNB-75 CNS): 78.7 nM
- GI50 (EKVX NSCLC): 43.2 nM
- TGI (EKVX NSCLC): 2390 nM
- GI50 (CAKI-1 renal): 26.4 nM
- TGI (CAKI-1 renal): 1850 nM
- GI50 (A498 renal): 32.7 nM
- TGI (A498 renal): 1240 nM
- GI50 (NCI/ADR-RES ovarian): 19.5 nM
- TGI (NCI/ADR-RES ovarian): 42.4 nM
- GI50 (HOP-62 NSCLC): 33.5 nM
- TGI (HOP-62 NSCLC): 1440 nM
- GI50 (HL-60(TB) leukemia): 14.7 nM
- TGI (HL-60(TB) leukemia): 28.4 nM
- GI50 (NCI-H522 lung): 16.7 nM
- TGI (NCI-H522 lung): 36.6 nM
- GI50 (MALME-3M melanoma): 32 nM
- TGI (MALME-3M melanoma): 6490 nM
- GI50 (NCI-H460 NSCLC): 30.2 nM
- TGI (NCI-H460 NSCLC): 83.3 nM
- GI50 (SN12C renal): 38.6 nM
- TGI (SN12C renal): 2400 nM
- GI50 (OVCAR-4 ovarian): 1000 nM
- TGI (OVCAR-4 ovarian): 4460 nM
- GI50 (NCI-H226 lung): 30.2 nM
- TGI (NCI-H226 lung): 86.7 nM
- GI50 (MDA-MB-231 breast): 52.4 nM
- TGI (MDA-MB-231 breast): 4690 nM
- GI50 (HCC-2998 colon): 32.1 nM
- TGI (HCC-2998 colon): 375 nM
- GI50 (MCF7 breast): 30.3 nM
- TGI (MCF7 breast): 1450 nM
- GI50 (HCT-15 colon): 32.4 nM
- TGI (HCT-15 colon): 1320 nM
- GI50 (PC-3 prostate): 32.6 nM
- TGI (PC-3 prostate): 1820 nM
- GI50 (SK-MEL-28 melanoma): 52.1 nM
- TGI (SK-MEL-28 melanoma): 5080 nM
- GI50 (SW-620 colon): 33.9 nM
- TGI (SW-620 colon): 2600 nM
- GI50 (SNB-19 CNS): 47.1 nM
- TGI (SNB-19 CNS): 1960 nM
- GI50 (HOP-92 NSCLC): 41.1 nM
- TGI (HOP-92 NSCLC): 2970 nM
- GI50 (NCI-H322M lung): 50.4 nM
- TGI (NCI-H322M lung): 2560 nM
- GI50 (HS 578T breast): 17.2 nM
- TGI (HS 578T breast): 37.5 nM
- GI50 (U251 glioblastoma): 42.4 nM
- TGI (U251 glioblastoma): 1490 nM
- GI50 (K-562 leukemia): 27.6 nM
- TGI (K-562 leukemia): 89.8 nM
- GI50 (IGROV1 ovarian): 73.2 nM
- TGI (IGROV1 ovarian): 7330 nM
- GI50 (T-47D breast): 28.9 nM
- TGI (T-47D breast): 3230 nM
- GI50 (TK-10 renal): 69.3 nM
- TGI (TK-10 renal): 5310 nM
- GI50 (RPMI-8226 leukemia): 18.3 nM
- TGI (RPMI-8226 leukemia): 36.8 nM
- GI50 (UACC-62 melanoma): 27.5 nM
- TGI (UACC-62 melanoma): 1590 nM
- GI50 (HT29 colon): 23.8 nM
- TGI (HT29 colon): 52.5 nM
- GI50 (UO-31 renal): 42.2 nM
- TGI (UO-31 renal): 3420 nM
- GI50 (SF-295 CNS): 32.1 nM
- TGI (SF-295 CNS): 356 nM
- GI50 (KM12 colon): 24.4 nM
- TGI (KM12 colon): 1080 nM
- GI50 ([…]-0 renal): 32.7 nM
- TGI (786-0 renal): 1220 nM
- GI50 (LOX IMVI melanoma): 48.4 nM
- TGI (LOX IMVI melanoma): 2210 nM
- GI50 (SK-OV-3 ovarian): 34.8 nM
- TGI (SK-OV-3 ovarian): 1660 nM
- GI50 (MDA-MB-435 melanoma): 12.8 nM
- TGI (MDA-MB-435 melanoma): 33.2 nM
